Measured values taken from patent US11395489B2, “Microbiocidal picolinamide derivatives” (Syngenta Participations AG, priority 2017, dated 2022).

Columns and labels:
[1] = tested on: Botryotinia fuckeliana (Botrytis cinerea); assay: Botryotinia fuckeliana (Botrytis cinerea) / liquid culture (Gray Mould); format: cell-based; details: 72 h, 200 ppm in the formulation, inhibition of growth determined photometrically 3-4 days after application, read-out: disease control
Procedure: Botryotinia fuckeliana (Botrytis cinerea)/Liquid Culture (Gray Mould) Conidia of the fungus from cryogenic storage are directly mixed into nutrient broth (Vogels broth). After placing a (DMSO) solution of test compound into a microtiter plate (96-well format), the nutrient broth containing the fungal spores is added. The test plates are incubated at 24° C. and the inhibition of growth is determined photometrically 3-4 days after application.

[2] = tested on: Magnaporthe risea (Pyricularia Oryzae); assay: whole plant or invertebrate; format: in vivo; details: foliar, read-out: disease control
[3] = tested on: Monocraphella nivalis (Microdochium nivale); assay: Monocraphella nivalis (Microdochium nivale) / liquid culture (Foot Rot Cereals); format: cell-based; details: 96 h, 200 ppm in the formulation, inhibition of growth determined photometrically 4-5 days after application, read-out: disease control
Procedure: Monocraphella nivalis (Microdochium nivale)/Liquid Culture (Foot Rot Cereals) Conidia of the fungus from cryogenic storage are directly mixed into nutrient broth (PDB potato dextrose broth). After placing a (DMSO) solution of test compound into a microtiter plate (96-well format), the nutrient broth containing the fungal spores is added. The test plates are incubated at 24° C. and the inhibition of growth is determined photometrically 4-5 days after application.

[4] = tested on: Mycosphaerella arachidis (Cercospora arachidicola); assay: Mycosphaerella arachidis (Cercospora arachidicola) / liquid culture (Early Leaf Spot); format: cell-based; details: 96 h, 200 ppm in the formulation, inhibition of growth determined photometrically 4-5 days after application, read-out: disease control
Procedure: Mycosphaerella arachidis (Cercospora arachidicola)/Liquid Culture (Early Leaf Spot) Conidia of the fungus from cryogenic storage are directly mixed into nutrient broth (PDB potato dextrose broth). After placing a (DMSO) solution of test compound into a microtiter plate (96-well format), the nutrient broth containing the fungal spores is added. The test plates are incubated at 24° C. and the inhibition of growth is determined photometrically 4-5 days after application.

[5] = tested on: Mycosphaerella Raminicola (Septoria tritici); assay: Mycosphaerella Raminicola (Septoria tritici) / liquid culture (Septoria Blotch); format: cell-based; details: 200 ppm in the formulation, inhibition of growth determined photometrically 4 to 5 days after application, read-out: disease control
Procedure: Mycosphaerella Raminicola (Septoria tritici)/Liquid Culture (Septoria Blotch) Conidia of the fungus from cryogenic storage are directly mixed into nutrient broth (PDB potato dextrose broth). After placing a (DMSO) solution of test compound into a microtiter plate (96-well format), the nutrient broth containing the fungal spores is added. The test plates are incubated at 24° C. and the inhibition of growth is determined photometrically 4 to 5 days after application.

[6] = tested on: Puccinia recondita f. Sp. Tritici; assay: Puccinia recondita f. sp. tritici / wheat / leaf disc preventative (Brown Rust); format: in vivo; details: foliar, 168 h, 200 ppm in the formulation, compared to untreated, 7-9 days after application, read-out: disease control
[7] = tested on: Glomerella lacenarium (Colletotrichum lacenarium); assay: Glomerella lacenarium (Colletotrichum lacenarium) / liquid culture (Anthracnose); format: cell-based; details: 200 ppm in the formulation, inhibition of growth measured photometrically 3-4 days after application, read-out: disease control
Procedure: Glomerella lacenarium (Colletotrichum lacenarium)/Liquid Culture (Anthracnose) Conidia of the fungus from cryogenic storage are directly mixed into nutrient broth (PDB potato dextrose broth). After placing a (DMSO) solution of test compound into a microtiter plate (96-well format), the nutrient broth containing the fungal spores is added. The test plates are incubated at 24° C. and the inhibition of growth is measured photometrically 3-4 days after application.

COc1ccnc(C(=O)N[C@@H](C)C(=O)OC(C)C2(c3ccccc3)CC2)c1O (stereo partly drawn) [I.a.006, 1-(1-phenylcyclopropyl)ethyl (2S)-2-[(3-hydroxy-4-methoxy-pyridine-2-carbonyl)amino]propanoate]
≥ 80%: inhibition of growth at 200 ppm [1] | pest or weed control at 200 ppm [2] | inhibition of growth at 200 ppm [3] | inhibition of growth at 200 ppm [4] | inhibition of growth at 200 ppm [5] | pest or weed control at 200 ppm [6]

COc1ccnc(C(=O)N[C@@H](C)C(=O)OC(C)C2(c3cccc(Br)c3)CC2)c1O (stereo partly drawn) [I.d.006, 1-[1-(3-bromophenyl)-cyclopropyl]ethyl (2S)-2-[(3-hydroxy-4-methoxy-pyridine-2-carbonyl)amino]propanoate]
≥ 80%: inhibition of growth at 200 ppm [1] | inhibition of growth at 200 ppm [7] | inhibition of growth at 200 ppm [3] | inhibition of growth at 200 ppm [4] | inhibition of growth at 200 ppm [5] | pest or weed control at 200 ppm [6]

COc1ccnc(C(=O)N[C@@H](C)C(=O)OC(C)C(C)(C)c2ccc(F)cc2)c1O (stereo partly drawn) [I.j.001, [2-(4-fluorophenyl)-1,2-dimethyl-propyl] (2S)-2-[(3-hydroxy-4-methoxy-pyridine-2-carbonyl)-amino]propanoate]
≥ 80%: inhibition of growth at 200 ppm [1] | inhibition of growth at 200 ppm [7] | inhibition of growth at 200 ppm [3] | inhibition of growth at 200 ppm [4] | inhibition of growth at 200 ppm [5] | pest or weed control at 200 ppm [6]

COc1ccnc(C(=O)N[C@@H](C)C(=O)OC(C)C2(c3ccc(F)cc3)CC2c2ccccc2)c1O (stereo partly drawn) [I.j.010, 1-[1-(4-fluorophenyl)-2-phenyl-cyclopropyl]-ethyl (2S)-2-[(3-hydroxy-4-methoxy-pyridine-2-carbonyl)-amino]propanoate]
≥ 80%: inhibition of growth at 200 ppm [7] | inhibition of growth at 200 ppm [4] | inhibition of growth at 200 ppm [5] | pest or weed control at 200 ppm [6]

COc1ccnc(C(=O)N[C@@H](C)C(=O)OC(C)C2(c3ccc(F)cc3)CC2c2ccc(F)cc2)c1O (stereo partly drawn) [I.j.011, 1-[1,2-bis(4-fluoro-phenyl)cyclopropyl]-ethyl (2S)-2-[(3-hydroxy-4-methoxy-pyridine-2-carbonyl)-amino]propanoate]
≥ 80%: inhibition of growth at 200 ppm [7] | inhibition of growth at 200 ppm [3] | inhibition of growth at 200 ppm [4] | inhibition of growth at 200 ppm [5] | pest or weed control at 200 ppm [6]

COc1ccnc(C(=O)N[C@@H](C)C(=O)OC(C)C2(c3ccc(Cl)cc3)CCCC2)c1O (stereo partly drawn) [I.k.014, 1-[1-(4-chlorophenyl)-cyclopentyl]ethyl (2S)-2-[(3-hydroxy-4-methoxy-pyridine-2-carbonyl)amino]propanoate]
≥ 80%: inhibition of growth at 200 ppm [1] | inhibition of growth at 200 ppm [7] | pest or weed control at 200 ppm [2] | inhibition of growth at 200 ppm [3] | inhibition of growth at 200 ppm [4] | inhibition of growth at 200 ppm [5] | pest or weed control at 200 ppm [6]

COc1ccnc(C(=O)N[C@@H](C)C(=O)OC(C)C2(c3ccc(Br)cc3)CCC2)c1O (stereo partly drawn) [I.m.012, 1-[1-(4-bromophenyl)-cyclobutyl]ethyl (2S)-2-[(3-hydroxy-4-methoxy-pyridine-2-carbonyl)amino]propanoate]
≥ 80%: inhibition of growth at 200 ppm [1] | inhibition of growth at 200 ppm [7] | pest or weed control at 200 ppm [2] | inhibition of growth at 200 ppm [3] | inhibition of growth at 200 ppm [4] | inhibition of growth at 200 ppm [5] | pest or weed control at 200 ppm [6]

COc1ccnc(C(=O)N[C@@H](C)C(=O)OC(C)C2(c3ccc(OC(F)(F)F)cc3)CC2)c1O (stereo partly drawn) [I.q.006, 1-[1-[4-(trifluoro-methoxy)phenyl]cyclo-propyl]ethyl (2S)-2-[(3-hydroxy-4-methoxy-pyridine-2-carbonyl)amino]propanoate]
≥ 80%: inhibition of growth at 200 ppm [1] | inhibition of growth at 200 ppm [7] | pest or weed control at 200 ppm [2] | inhibition of growth at 200 ppm [3] | inhibition of growth at 200 ppm [4] | inhibition of growth at 200 ppm [5] | pest or weed control at 200 ppm [6]

COc1ccnc(C(=O)N[C@@H](C)C(=O)OC(C)C2(c3ccc(Cl)c(Cl)c3)CC2)c1O (stereo partly drawn) [I.t.006, 1-[1-(3,4-dichloro-phenyl)cyclopropyl]-ethyl (2S)-2-[(3-hydroxy-4-methoxy-pyridine-2-carbonyl)-amino]propanoate]
≥ 80%: inhibition of growth at 200 ppm [1] | inhibition of growth at 200 ppm [7] | pest or weed control at 200 ppm [2] | inhibition of growth at 200 ppm [3] | inhibition of growth at 200 ppm [4] | inhibition of growth at 200 ppm [5] | pest or weed control at 200 ppm [6]

CCOc1ccc(C2(C(C)OC(=O)[C@H](C)NC(=O)c3nccc(OC)c3O)CC2(F)F)cc1 (stereo partly drawn) [I.u.007, 1-[1-(4-ethoxyphenyl)-2,2-difluorocyclopropyl]-ethyl (2S)-2-[(3-hydroxy-4-methoxy-pyridine-2-carbonyl)amino]propanoate]
≥ 80%: inhibition of growth at 200 ppm [1] | inhibition of growth at 200 ppm [7] | pest or weed control at 200 ppm [2] | inhibition of growth at 200 ppm [3] | inhibition of growth at 200 ppm [5] | pest or weed control at 200 ppm [6]

COc1ccnc(C(=O)N[C@@H](C)C(=O)OC(C)C2(c3cccc4ccccc34)CC2c2ccccc2)c1O (stereo partly drawn) [I.v.010, 1-[1-(1-naphthyl)-2-phenyl-cyclopropyl]-ethyl (2S)-2-[(3-hydroxy-4-methoxy-pyridine-2-carbonyl)-amino]propanoate]
≥ 80%: inhibition of growth at 200 ppm [7] | inhibition of growth at 200 ppm [4] | inhibition of growth at 200 ppm [5] | pest or weed control at 200 ppm [6]

COc1ccnc(C(=O)N[C@@H](C)C(=O)OC(C)C2(c3cccc4ccccc34)CC2c2ccc(F)cc2)c1O (stereo partly drawn) [I.v.011, 1-[2-(4-fluorophenyl)-1-(1-naphthyl)cyclo-propyl]ethyl (2S)-2-[(3-hydroxy-4-methoxy-pyridine-2-carbonyl)amino]-propanoate]
≥ 80%: inhibition of growth at 200 ppm [7] | inhibition of growth at 200 ppm [4] | inhibition of growth at 200 ppm [5] | pest or weed control at 200 ppm [6]
